Source: patent publication US10905738B2, “Synthetic peptides, prodrugs, pharmaceutical compositions and uses” (Biozeus Desenvolvimento De Produtos Biofarmacêuticos, priority 2018, dated 2021)

Experiments:
[1] = test system: smooth muscle of tracheal rings; assay: spasmodic contraction of tracheal rings ex vivo (histamine-induced); design: species or system Dunkin-Hartley guinea pigs; settings: mean±SEM
Protocol: The magnitude of the relaxing effect of the peptides was evaluated by means of a model of spasmodic contraction of tracheal rings ex vivo, largely employed to test new bronchodilating agents (see CULLUM, V. A., FARMER, J. B., JACK, D., LEVY, G. P. Salbutamol: a new, selective β-adrenoceptive receptor stimulant. British journal of pharmacology, 35(1): 141-151. 1969; KAO, C. H., CHU, Y. H., WANG, H. W. Effects of lidocaine on rat's isolated tracheal smooth muscle. European Archives of Oto-Rhino-Laryngology, 267(5): 817-820. 2010; SORIANO-URSÚA, M. A., VALENCIA-HERNÁNDEZ, I., ARELLANO-MENDOZA, M. G., CORREA-BASURTO, J., TRUJILLO-FERRARA, J. G. Synthesis, pharmacological and in silico evaluation of 1-(4-dihydroxy-3, 5-dioxa-4-borabycyclo [4.4.0] deca-7,9,11-trien-9-yl)-2-(tert-butylamine) ethanol, a compound designed to act as a β2 adrenoceptor agonist. European journal of medicinal chemistry, 44(7): 2840-2846. 2009).
For each test, Dunkin-Hartley guinea pigs (400-500 g) were euthanized in a CO2 atmosphere; subsequently, the trachea was exposed, removed and sectioned in segments of 1 to 3 cartilaginous tracheal rings. Each segment was transferred to an individual organ bath system containing Krebs nutritive solution (NaCl 118 mM; KCl […]; CaCl2) 2.5 mM; MgSO4 1.2 mM; KH2PO4 1.2 mM; NaHCO324 mM; glucose 11 mM) at 37° C., under constant aeration with a carbogenic mixture (95% of O2 and 5% of CO2). In each system, a stem fixed to the base of the container and another connected to an isometric transducer (GRASS FT-03) made up the support of the fragments. A data digitizing system connected to the isometric transducer allowed the recording of tension variations produced by the contraction of the tracheal rings (PowerLab™ 16/30, LabChart, version 8.1, AD Instruments, Australia). The basal tension was adjusted to 1 g, and subsequently, the contractility of the fragments was evaluated by a stimulus with carbachol (2.5 μM). After 1 h at rest, the basal tension was recovered and the tissues were subjected to contraction induced by histamine (50 μM) followed by exposure to increasing concentrations of the treatments (0.01 to 10 μM; n=8) or the comparator PnTx(19).
Table 1 lists the mean±SEM of the potency values, shown as the negative logarithm of the concentration that reduced the voltage to 50% of the maximum Histamine-induced contraction (pEC50), and efficacy (Emax), calculated from at least 8 independent tests using the sigmoid nonlinear regression equation of the software Graph Prism 5.0 (GraphPad Software, La Jolla, Ca, USA).

[2] = test system: cavernosal strips; assay: relaxation induced by electric stimuli in cavernosal strips pre-contracted with phenylephrine ex vivo; design: species or system rats of Sprague Dawley (SD) lineage; settings: peptides 10^−10 M; 10^−8 M; 10^−6 M; FIG. 3
Protocol: The relaxing potential of the peptides of the present invention on the smooth muscles of cavernous strips was evaluated ex vivo using tissue isolated from rats, a model that is largely used to test drug candidates for the treatment of ED (ITALIANO, G., CALABRÒ, A., PAGANO, F. A simplified in vitro preparation of the corpus cavernosum as a tool for investigating erectile pharmacology in the rat. Pharmacological research, 30(4): 325-334. 1994; GEMALMAZ, H., WALDECK, K., CHAPMAN, T. N., TUTTLE, J. B., STEERS, W. D., ANDERSSON, K E. In vivo and in vitro investigation of the effects of sildenafil on rat cavernous smooth muscle. The Journal of Urology, 165(3): 1010-1014.2001).
Male rats of Sprague Dawley (SD) lineage were sacrificed by guillotine; the penises were removed surgically and placed on a Petri dish containing Krebs—bicarbonate solution (NaCl 118.1 mM; KCl 4.7 mM; KH2PO4 1.0 mM; MgSO4 1.0 mM; NaHCO3 25.0 mM; CaCl2) 2.5 mM and Glucose 11.1 mM). The corpus cavernosum were dissected by removing the glans, urethra, spongeous body and dorsal vein, and then separated by cutting the fibrous septum between them. Cavernosal strips measuring 2×2×7 mm were mounted separately in a bath for isolated organs containing bicarbonate solution-Krebs (pH 7.4) at 37° C., aerated with 95% of O02 and 5% of CO2. The tissue was connected to a tension transducer and the changes in tension were continuously registered. The cavernosal strips were contracted with phenylephrine (10^−5 M) and subsequently relaxed by electrical stimulation at different frequencies (1 to 32 Hz). […] Differences in the percentage of relaxation between treatment and control were evaluated with regard to statistical significance by means of two-way variance analysis (Two-Way ANOVA) followed by Bonferroni post-test. For the comparison between the treatments and control in light of the stimulation in a single frequency, the results were evaluated by one-way analysis variance (One-Way ANOVA) followed by Bonferroni post-test. […]

RQYFWIAWYKLANSK [SEQ ID NO: 5, Ac-Arg-Gln-Tyr-Phe-Trp-Ile-Ala-Trp-Tyr-Lys-Leu-Ala-Asn-Ser-Lys-NH2]
Effectiveness (Emax) (%) ([1]; relaxation of tracheal rings contracted by histamine (50 μM)): Inactive
Potency (pEC50) Molar ([1]; tracheal rings contracted by histamine (50 μM), peptides 0.01 to 10 μM): Inactive
enhancing effect on relaxation induced by electric stimuli in strips of cavernous body contracted by phenylephrine [2]: enhancing effect
